Reference: paper PMC11590367, “Characterization of novel small molecule inhibitors of estrogen receptor-activation function 2 (ER-AF2)” (Breast Cancer Research : BCR, 2024)

How the values were obtained:
[1] = test system: ER transcriptional activity in T47D-KBluc cells; assay: Luciferase transcriptional assay; format: cell-based; conditions: ER transcription, luciferase reporter, 1 nM E2, 24 h treatment, ± SD of 3 biological replicates
Method: T47D-KBluc cells or PC3m-luc cells were starved for 72 h and then seeded into 96-well plates at 20,000 or 5,000 cells/well, respectively. […] One day post-treatment, the media was removed, and cells were lysed with 65 µl of 1x passive lysis buffer (Promega #E1910). Following two freeze-thaw cycles, 20 µl of lysate were transferred to a white, 96-well flat bottom plate (Corning Life Sciences Cat#3912). 50 µl of luciferase reagent (Promega. Luciferase Assay System E1500) was added to each well, and luminescence was measured using the TECAN M200 Pro plate reader. E2 (1 nM), 4-hydroxytamoxifen (OHT) (4 nM), and DMSO (0.2%) were used as controls for this assay. […] E2 alone represented 100% transcriptional activation, while the 0.2% DMSO control represented 0% transcriptional activity. OHT was used as a positive control for an active compound.

[2] = test system: T47D cells; assay: PrestoBlue viability assay, T47D; format: cell-based; conditions: 1 nM E2, 72 h treatment, ± SD of 3 biological replicates
Method: (§1) T47D, MCF7, TamR3, and MDA-MB-231 cells were starved for 72 h and then seeded into black clear-bottom 96-well plates (Corning Life Sciences Cat#3904) at 20,000 cells/well (T47D, MCF7, TamR3) or 5,000 cells/well (MDA-MB-231). […] 20 µl of PrestoBlue Cell Viability Reagent (Thermo Fisher A13262) was added to each well and incubated at 37 °C for 1 h. Fluorescence intensity was measured using the TECAN F500 plate reader with emission and excitation wavelengths of […], respectively.

[3] = test system: TamR3 cells; assay: PrestoBlue viability assay, TamR3; format: cell-based; conditions: 1 nM E2, 72 h treatment, ± SD of 3 biological replicates
Method: as §1

[4] = target: T1, full length ERɑ protein, estrogen binding site (EBS) (Homo sapiens, UniProt P03372); assay: E2-displacement assay (PolarScreen fluorescence polarization); conditions: fluorescence polarization, 1, 10 and 50 µM
T1 construct: full length ERɑ protein was incubated with Fluormone ES2 Green; purchased ThermoFisher A15882
Method: The E2 displacement assay was performed using the PolarScreen Estrogen Receptor Alpha Competitor Assay, Green (ThermoFisher A15882) according to the manufacturer’s protocol. In brief, full length ERɑ protein was incubated with Fluormone ES2 Green (Fluormone Tracer) in the ES2 screening buffer in a black bottom 384-well plate (Corning 3573) in the presence of either 1, 10, or 50 µM of test compounds. The final concentrations in the assay were 2% DMSO (consistent with the MST assay), 4.5 nM fluormone, and 40 nM ERɑ protein. 20 µl of the mixture were added to each well, with triplicates performed for each condition. The plate was incubated in the dark at room temperature for 4 h before fluorescence polarization was measured using a Synergy Neo2 plate reader (BioTek).

[5] = Precipitation in MST assay buffer; format: physicochemical; conditions: 2% DMSO, 0.03 to 1000 µM
Method: MST was used to validate the direct binding and measure the binding affinities between the lead compounds and the recombinant ER-LBD. ER-LBD was labeled with red fluorescent dye using a Protein Labeling Kit RED-NHS 2nd Generation (Nanotemper MO-L011) according to the manufacturer’s protocol. The compounds were serially diluted 1:2 in 100% DMSO from 50 to 0.0015 mM, then added to 10 nM of labeled ER protein in the assay buffer (25 mM Tris, pH 8.4, 150 mM NaCl, 20 µM E2, 0.1 mM PMSF, 0.05% Tween20) at final concentrations of 0.03 to 1000 µM. Recombinant proteins in cell free assays are not affected by DMSO concentrations up to 10%. A final concentration of 2% DMSO was chosen for MST as the compounds required this concentration to be soluble in the assay buffer. […] The corresponding data points were removed from the analysis. […] Each protein/compound mixture was then loaded into Monolith Premium Capillaries (Nanotemper MO-K025). All assays were conducted with medium MST power and 20% excitation power. Data analysis and Kd estimation were performed with the MO Affinity Analysis software from Nanotemper.

[6] = test system: ER target genes (cyclinD1, CDC2, E2F, PR, pS2) in MCF7 cells; assay: Real-time PCR of ER target genes, MCF7; format: cell-based; conditions: 10 µM, 72 h, E2 stimulation
Method: (§2) Total RNA was extracted using TRIzol, 72 h post-treatment. cDNA synthesis was conducted using the Maxima First Strand cDNA Synthesis Kit for RT-qPCR (Thermo K1641) according to the manufacturer’s protocol. RT-PCR was conducted on the QuantStudio 7 Pro instrument and expression fold change was calculated using 2−ΔΔCt method normalized to 18s.

[7] = test system: ER target genes (cyclinD1, CDC2, E2F, PR, pS2) in TamR3 cells; assay: Real-time PCR of ER target genes, TamR3; format: cell-based; conditions: 72 h
Method: as §2

[8] = target: T2, ER (ERE-luc) in PC3 cells (Homo sapiens, UniProt P03372); assay: Nuclear receptor luciferase transcriptional assay, ER; format: cell-based; conditions: 1 or 5 µM, 1 nM E2, PC3 cells
T2 construct: expressed in transfected cells; host or cells: PC3 cells
Method: (§3) PC3 cells (androgen receptor (AR)-, glucocorticoid receptor (GR)[…], progesterone receptor (PR)-, ER-) were starved for 72 h then seeded into a 96-well plate at a density of 5,000 cells/well. 24 h later, cells were transfected with either ER, AR, GR, or PR and a luciferase plasmid (ERE-luc for ER and ARR3tk-luc for AR, GR, and PR). 24 h post-transfection, cells were simultaneously stimulated with 1 nM E2 for ER, 0.1 nM R1881 for AR, 1 nM Dexamethasone for GR, or 1 nM Levonorgestrel for PR, and treated with 1 or 5 µM of VPC-260724 24 h post-treatment, cells were lysed with 50 µl of passive lysis buffer (Promega #E1910). 20 µl of lysate was transferred to a white flat-bottom 96-well plate (Corning Life Sciences Cat#3912). Luminescence readings were obtained using the TECAN M200 Pro plate reader following the addition of 50 µl of luciferase reagent (Promega Luciferase Assay System E1500).

[9] = target: T3, GR (ARR3tk-luc) in PC3 cells (Homo sapiens, UniProt P04150); assay: Nuclear receptor luciferase transcriptional assay, GR; format: cell-based; conditions: 1 or 5 µM, 1 nM Dexamethasone
T3 construct: expressed in transfected cells; host or cells: PC3 cells
Method: as §3

T3 sequence (P04150 whole entry): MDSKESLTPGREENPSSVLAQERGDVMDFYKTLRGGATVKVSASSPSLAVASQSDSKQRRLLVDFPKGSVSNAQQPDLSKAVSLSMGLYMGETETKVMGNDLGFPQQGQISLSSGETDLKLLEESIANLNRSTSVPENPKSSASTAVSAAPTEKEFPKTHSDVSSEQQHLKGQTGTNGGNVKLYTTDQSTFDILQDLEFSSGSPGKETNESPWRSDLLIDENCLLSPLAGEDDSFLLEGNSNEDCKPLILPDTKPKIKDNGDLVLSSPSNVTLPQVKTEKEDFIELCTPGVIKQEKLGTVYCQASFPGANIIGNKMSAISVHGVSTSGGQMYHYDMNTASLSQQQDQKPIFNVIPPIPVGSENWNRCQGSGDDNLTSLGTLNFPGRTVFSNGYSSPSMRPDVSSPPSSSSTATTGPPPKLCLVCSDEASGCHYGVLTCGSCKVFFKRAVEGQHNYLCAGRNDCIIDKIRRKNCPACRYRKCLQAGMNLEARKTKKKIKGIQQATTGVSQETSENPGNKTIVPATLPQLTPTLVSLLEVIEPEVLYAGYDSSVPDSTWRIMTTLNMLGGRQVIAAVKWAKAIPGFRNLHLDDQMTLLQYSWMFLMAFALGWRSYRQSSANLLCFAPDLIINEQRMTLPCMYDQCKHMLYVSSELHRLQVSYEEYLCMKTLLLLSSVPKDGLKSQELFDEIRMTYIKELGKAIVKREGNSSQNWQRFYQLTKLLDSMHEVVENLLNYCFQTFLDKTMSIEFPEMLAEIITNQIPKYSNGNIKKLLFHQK
T1 sequence (P03372 whole entry): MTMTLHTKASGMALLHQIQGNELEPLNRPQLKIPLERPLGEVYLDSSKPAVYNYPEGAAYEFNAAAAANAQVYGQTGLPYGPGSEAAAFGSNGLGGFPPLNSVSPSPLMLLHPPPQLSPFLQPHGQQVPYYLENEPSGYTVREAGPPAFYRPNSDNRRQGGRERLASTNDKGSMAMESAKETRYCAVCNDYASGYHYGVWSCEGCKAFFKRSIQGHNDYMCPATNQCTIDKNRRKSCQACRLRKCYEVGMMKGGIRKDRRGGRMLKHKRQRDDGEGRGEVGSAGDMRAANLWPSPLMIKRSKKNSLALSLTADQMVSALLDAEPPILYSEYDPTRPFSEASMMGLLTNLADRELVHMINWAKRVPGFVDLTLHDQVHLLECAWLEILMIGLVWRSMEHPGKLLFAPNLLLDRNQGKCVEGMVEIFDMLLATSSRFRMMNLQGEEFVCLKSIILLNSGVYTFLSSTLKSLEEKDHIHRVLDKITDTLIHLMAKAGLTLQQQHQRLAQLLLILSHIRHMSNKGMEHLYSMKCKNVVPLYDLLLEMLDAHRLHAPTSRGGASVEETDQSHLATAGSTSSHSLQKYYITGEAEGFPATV
T2 sequence (P03372 whole entry): as above

Cc1cccn2c(CNCc3cccc(N(C)C)n3)cnc12 [VPC-260724]
IC50 ([1]; 24 h): 5.7 µM | IC50 [1]: 5.75 ± 1.13 µM | IC50 [2]: 7.42 ± 2.12 µM | IC50 ([2]; Homo sapiens, T47D, 72 h): 7.4 µM | IC50 [3]: 28.9 ± 4.55 µM | Displacement of fluormone (fluorescent E2) from EBS [4]: did not displace the fluormone at any of the tested concentrations | Precipitation after addition of ER protein [5]: did not exhibit precipitation at any concentration | mRNA levels of ER target genes, MCF7 [6]: significant decrease | ER target gene expression in TamR3, combined with tamoxifen ([7]; 10 µM with 1 µM Tamoxifen): markedly reduced | mRNA levels of ER target genes, TamR3 ([7]; 10 µM, E2 stimulation): significant decrease | Transcriptional activity of ER [8]: dose-dependent inhibition | Transcriptional activity of GR [9]: did not significantly impact
